The record followed here is patent US7045528B2, “Benzofused heterozryl amide derivatives of thienopyridines useful as therapeutic agents, pharmaceutical compositions including the same, and methods for their use” (Agouron Pharmaceuticals, Inc., priority 2002, dated 2006).

In series [1] the target is T1, FGF-R1 (Homo sapiens, UniProt P11362, C488A/C584S/L457V).
T1 construct: starting from the endogenous methionine residue 456 to glutamate 766; made in house; host or cells: baculovirus vector expression system
The experiment in a line: FGF-R spectrophotometric assay. Format: biochemical. The following applies: percent inhibition at 100 nM; library amides from Example 101 (R101), crude mixtures in DMSO. As to the method:
FGF-R1 Construct for Assay:
The intracellular kinase domain of human FGF-R1 was expressed using the baculovirus vector expression system starting from the endogenous methionine residue 456 to glutamate 766, according to the residue numbering system of Mohammadi et al., Mol. Cell. Bio., 16, 977–989 (1996). In addition, the construct also has the following 3 amino acid substitutions: L457V, C488A, and C584S.
The spectrophotometric assay was carried out as described above for VEGF-R2, except for the following changes in concentration: FGF-R=50 nM, ATP=2 mM, and poly(E4Y1)=15 mM.

Series [2] addresses T2, PDGFRβ (Homo sapiens, UniProt P09619).
T2 construct: expressed in transfected cells; host or cells: porcine aorta endothelial (PAE)-PDGFRβ cells
The experiment in a line: PAE-PDGFRβ phosphorylation in PAE-PDGFRB cells assay. The class given is cell-based. An outline of the steps: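 PAE cells overexpressing human PDGFRβ, serum-starved 16 h (0.1% FBS), were given compound for 1 h at 37 °C (0.5% DMSO) and then stimulated with 1 μg/mL PDGF-BB plus 2 mM Na3VO4 for 8 min. Receptor autophosphorylation was read by capture ELISA (HRP-PY20, TMB, 450 nm); IC50 from 4-parameter fit.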

The target in series [3] is T3, unphosphorylated VEGF-R2Δ50 (FLVK) (Homo sapiens, UniProt P35968, DEL940-989/E990V).
T3 construct: VEGF-R2Δ50 contains residues 806–939 and 990–1171; made in house; host or cells: baculovirus/insect cell system
Kind of series: VEGF-R2 coupled spectrophotometric assay, unphosphorylated VEGF-R2Δ50 (FLVK). Particulars: for inhibition at 0.1 µM: read-out: FLVK (% @ 100 nM); for inhibition at 0.05 µM: 50 nM compound, read-out: FLVK (% inh @ 50 nM); for inhibition at 0.05 µM / Ki: unphosphorylated VEGF-R2Δ50. Format: biochemical. An outline of the steps:
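Baculovirus-expressed human VEGF-R2Δ50 (kinase insert partly deleted, E990V), unphosphorylated form; ADP production coupled via PK/LDH to NADH oxidation, read at 340 nm. 20 mM poly(E4Y1), 3 mM ATP, 60 mM MgCl2, 2 mM MnCl2, 200 mM HEPES pH 7.5; 5–40 nM enzyme. Ki from Morrison tight-binding fit.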

The target in series [4] is T4, KDR (VEGFR2) (Homo sapiens, UniProt P35968).
T4 construct: expressed in transfected cells; host or cells: porcine aorta endothelial (PAE)-KDR cells
Kind of series: KDR (VEGFR2) phosphorylation in PAE-KDR cells assay. Format: cell-based. Particulars: PAE cells overexpressing human KDR, VEGF stimulated; read-out: PAE KDR autophos IC50 (nM) AVG. As to the method: KDR (VEGFR2) Phosphorylation in PAE-KDR Cells Assay
This assay determines the ability of a test compound to inhibit the autophosphorylation of KDR in porcine aorta endothelial (PAE)-KDR cells. PAE cells that overexpress human KDR were used in this assay. The cells were cultured in Ham's F12 media supplemented with 10% fetal bovine serum (FBS) and 400 ug/mL G418. Thirty thousands cells were seeded into each well of a 96-well plate in 75 μL of growth media and allowed to attach for 6 hours at 37° C. Cells were then exposed to the starvation media (Ham's F12 media supplemented with 0.1% FBS) for 16 hours. After the starvation period was over, 10 μL of test agent in 5% DMSO in starvation media were added to the test wells and 10 μL of the vehicle (5% DMSO in starvation media) were added into the control wells. The final DMSO concentration in each well was 0.5%. Plates were incubated at 37° C. for 1 hour and the cells were then stimulated with 500 ng/ml VEGF (commercially available from R & D System) in the presence of 2 mM Na3VO4 for 8 minutes. The cells were washed once with 1 mm Na3VO4 in HBSS and lysed by adding 50 μL per well of lysis buffer. One hundred μL of dilution buffer were then added to each well and the diluted cell lysate was transferred to a 96-well goat ant-rabbit coated plate (commercially available from Pierce) which was pre-coated with Rabbit anti Human Anti-flk-1 C-20 antibody (commercially available from Santa Cruz). The plates were incubated at room temperature for 2 hours and washed seven times with 1% Tween 20 in PBS. HRP-PY20 (commercially available from Santa Cruz) was diluted and added to the plate for a 30-minute incubation. Plates were then washed again and TMB peroxidase substrate (commercially available from Kirkegaard & Perry) was added for a 10-minute incubation. One hundred μL of 0.09 N H2SO4 was added to each well of the 96-well plates to stop the reaction. Phosphorylation status was assessed by spectrophotometer reading at 450 nm. IC50 values were calculated by curve fitting using a four-parameter analysis.

Series [5] concerns human umbilical vein endothelial cells (HUVEC). The experiment in a line: HUVEC+VEGF proliferation assay. The class given is cell-based. Particulars: Homo sapiens, HUVEC; VEGF 6 ng/mL, 72 h, MTT. An outline of the steps: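 Exponentially growing passage 3–4 HUVEC were starved 24 h in F12K + 1% FBS, given compound (0.1% final DMSO) 1 h before 6 ng/mL final VEGF, then cultured 72 h. Proliferation was read as MTT dye reduction (4 h exposure), absorbance at 595 nm.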

Series [6] has as its system Huvec. Kind of series: bFGF Huvec proliferation. Particulars: Homo sapiens, HUVEC. The class given is cell-based, human.
The mark [7] stands for this setting: library amides from Example 101 (R101), crude mixtures in DMSO, read-out: PAE PDGFR autophos IC50.
The mark [8] stands for this setting: percent inhibition at 100 nM, library amides from Example 101 (R101), crude mixtures in DMSO.
The mark [9] stands for this setting: PAE cells overexpressing human PDGFRβ, PDGF-BB stimulated, read-out: PAE PDGFR autophos IC50 (nM) AVG.

Like-named read-outs stand apart in the source and are kept apart here. Some results are limits rather than exact numbers.

T2 sequence (P09619 33-1106): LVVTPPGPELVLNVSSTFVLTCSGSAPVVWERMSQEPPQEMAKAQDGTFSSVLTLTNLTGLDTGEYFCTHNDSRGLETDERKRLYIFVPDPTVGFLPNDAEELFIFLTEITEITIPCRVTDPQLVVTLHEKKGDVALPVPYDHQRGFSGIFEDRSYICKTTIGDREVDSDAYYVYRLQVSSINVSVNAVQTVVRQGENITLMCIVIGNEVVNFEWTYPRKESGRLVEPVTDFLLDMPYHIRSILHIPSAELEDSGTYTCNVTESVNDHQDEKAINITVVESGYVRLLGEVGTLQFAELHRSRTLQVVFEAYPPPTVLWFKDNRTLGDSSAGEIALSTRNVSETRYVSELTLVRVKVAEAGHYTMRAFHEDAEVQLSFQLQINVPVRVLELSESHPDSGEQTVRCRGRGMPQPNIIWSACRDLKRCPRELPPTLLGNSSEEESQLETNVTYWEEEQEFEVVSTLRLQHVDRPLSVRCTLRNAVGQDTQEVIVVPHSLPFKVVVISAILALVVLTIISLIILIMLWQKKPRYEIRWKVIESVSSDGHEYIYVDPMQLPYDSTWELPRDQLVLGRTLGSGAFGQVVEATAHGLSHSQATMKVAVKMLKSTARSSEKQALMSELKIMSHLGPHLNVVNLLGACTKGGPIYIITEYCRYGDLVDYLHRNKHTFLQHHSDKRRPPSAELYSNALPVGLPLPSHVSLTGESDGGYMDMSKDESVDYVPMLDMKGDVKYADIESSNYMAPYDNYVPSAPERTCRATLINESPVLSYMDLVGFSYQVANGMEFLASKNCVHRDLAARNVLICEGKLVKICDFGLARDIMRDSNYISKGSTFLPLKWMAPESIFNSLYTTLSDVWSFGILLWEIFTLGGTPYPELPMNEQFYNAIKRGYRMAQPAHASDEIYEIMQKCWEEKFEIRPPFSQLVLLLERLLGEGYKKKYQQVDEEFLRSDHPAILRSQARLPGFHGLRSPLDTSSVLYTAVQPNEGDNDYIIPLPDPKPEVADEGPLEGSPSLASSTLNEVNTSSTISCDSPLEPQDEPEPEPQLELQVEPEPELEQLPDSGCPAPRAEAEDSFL
T1 sequence (P11362 456-766 L457V/C488A/C584S): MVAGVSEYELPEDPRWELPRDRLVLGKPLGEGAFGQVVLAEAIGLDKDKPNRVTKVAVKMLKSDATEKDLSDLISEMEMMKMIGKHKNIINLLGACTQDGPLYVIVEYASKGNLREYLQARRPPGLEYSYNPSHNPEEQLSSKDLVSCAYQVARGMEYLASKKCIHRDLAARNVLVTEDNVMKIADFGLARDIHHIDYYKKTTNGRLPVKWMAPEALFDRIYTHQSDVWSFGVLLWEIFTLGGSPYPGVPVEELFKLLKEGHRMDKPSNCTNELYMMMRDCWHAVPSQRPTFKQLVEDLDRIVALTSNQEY
T3 sequence (P35968 with tags, fused parts or gaps DEL940-989/E990V limits assumed): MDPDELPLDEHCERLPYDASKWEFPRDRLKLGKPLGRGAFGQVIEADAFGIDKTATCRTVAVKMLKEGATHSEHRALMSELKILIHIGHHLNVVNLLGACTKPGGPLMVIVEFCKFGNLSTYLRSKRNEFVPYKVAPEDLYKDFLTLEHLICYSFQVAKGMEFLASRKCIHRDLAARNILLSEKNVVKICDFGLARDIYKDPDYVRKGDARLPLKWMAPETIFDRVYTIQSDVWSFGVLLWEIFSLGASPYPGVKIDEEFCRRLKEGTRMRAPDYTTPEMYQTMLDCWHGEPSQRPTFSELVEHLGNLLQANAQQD
T4 sequence (P35968 20-1356): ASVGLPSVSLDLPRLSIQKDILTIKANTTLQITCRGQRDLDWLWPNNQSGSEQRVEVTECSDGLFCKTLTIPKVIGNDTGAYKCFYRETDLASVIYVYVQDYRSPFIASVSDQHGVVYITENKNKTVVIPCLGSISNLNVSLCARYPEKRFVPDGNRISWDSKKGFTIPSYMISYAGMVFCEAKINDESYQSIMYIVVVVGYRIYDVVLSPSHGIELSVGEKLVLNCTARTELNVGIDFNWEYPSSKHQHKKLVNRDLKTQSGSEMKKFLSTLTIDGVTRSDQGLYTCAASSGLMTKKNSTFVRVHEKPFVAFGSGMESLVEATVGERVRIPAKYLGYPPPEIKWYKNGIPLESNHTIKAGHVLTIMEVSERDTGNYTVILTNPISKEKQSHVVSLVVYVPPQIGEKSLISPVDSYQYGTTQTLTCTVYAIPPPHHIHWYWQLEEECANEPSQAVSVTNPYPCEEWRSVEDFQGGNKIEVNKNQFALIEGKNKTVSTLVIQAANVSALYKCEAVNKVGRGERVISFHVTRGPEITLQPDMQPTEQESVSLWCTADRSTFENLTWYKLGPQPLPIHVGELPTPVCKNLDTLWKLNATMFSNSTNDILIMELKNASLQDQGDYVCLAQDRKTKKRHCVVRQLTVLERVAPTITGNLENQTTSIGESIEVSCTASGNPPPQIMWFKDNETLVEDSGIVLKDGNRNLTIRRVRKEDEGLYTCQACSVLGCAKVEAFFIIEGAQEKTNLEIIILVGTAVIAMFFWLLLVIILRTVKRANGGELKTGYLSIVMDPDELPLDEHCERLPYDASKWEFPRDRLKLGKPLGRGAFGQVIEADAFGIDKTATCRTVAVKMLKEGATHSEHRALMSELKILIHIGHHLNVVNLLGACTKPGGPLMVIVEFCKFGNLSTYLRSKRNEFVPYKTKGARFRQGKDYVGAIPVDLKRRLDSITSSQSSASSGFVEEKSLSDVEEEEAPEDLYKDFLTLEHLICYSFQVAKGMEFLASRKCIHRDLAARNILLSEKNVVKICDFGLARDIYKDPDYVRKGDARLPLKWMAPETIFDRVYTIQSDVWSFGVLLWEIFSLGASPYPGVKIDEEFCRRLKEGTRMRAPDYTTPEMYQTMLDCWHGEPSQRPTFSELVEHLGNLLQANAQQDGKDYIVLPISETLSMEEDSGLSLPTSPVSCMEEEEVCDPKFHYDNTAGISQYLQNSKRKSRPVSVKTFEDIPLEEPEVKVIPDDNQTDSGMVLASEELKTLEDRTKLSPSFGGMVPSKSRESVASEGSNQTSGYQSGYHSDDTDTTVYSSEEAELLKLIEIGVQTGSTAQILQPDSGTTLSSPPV

On to `Cc1oc2cc(Oc3ccnc4ccsc34)ccc2c1C(=O)Nc1cnc2ccccc2c1`, for which the inhibition at 0.1 µM was 7% in series [1] and 85% in series [3] (setting [8]). Besides, the IC50 in series [2] (setting [7]) was > 100 nM.
For the compound `Cc1oc2cc(Oc3ccnc4ccsc34)ccc2c1C(=O)Nc1ccc(N2CCOCC2)nc1` [drawing 369], the inhibition at 0.1 µM in series [1] was found to be 0%; in series [3] (setting [8]), 101%. For the same compound, in series [2] (setting [7]), the IC50 came out at 57 nM.
Consider `Cc1oc2cc(Oc3ccnc4ccsc34)ccc2c1C(=O)Nc1nncs1`, for which the inhibition at 0.1 µM in series [1] turned out to be 35%; in series [3] (setting [8]), 75%. The IC50 in series [2] (setting [7]) was > 100 nM.
The matching figures for `Cc1ccc(NC(=O)c2c(C)oc3cc(Oc4ccnc5ccsc45)ccc23)c(O)c1`: 0%, 85% and ~100 nM.
Take `Cc1oc2cc(Oc3ccnc4ccsc34)ccc2c1C(=O)Nc1nnc(C2CC2)s1`: the inhibition at 0.1 µM in series [1] came to 4%; in series [3] (setting [8]) it was 100%. The half-maximal inhibitory concentration (IC50) in series [2] (setting [7]) was > 100 nM.
On the same counts, the results for `Cc1oc2cc(Oc3ccnc4ccsc34)ccc2c1C(=O)Nc1ccc2cn[nH]c2c1` are 0%, 87% and 57 nM.
On to `Cc1oc2cc(Oc3ccnc4ccsc34)ccc2c1C(=O)NCCOC(C)C` [drawing 361], for which the values for the inhibition at 0.1 µM in series [1] and in series [3] (setting [8]) were 0% and 94%, respectively. Further, the IC50 in series [2] (setting [7]) turned out to be 61 nM.
The matching figures for `Cc1oc2cc(Oc3ccnc4ccsc34)ccc2c1C(=O)Nc1ccc2ncsc2c1`: 0%, 96% and > 100 nM.
`Cc1oc2cc(Oc3ccnc4ccsc34)ccc2c1C(=O)Nc1cc(-c2ccco2)n[nH]1`: the inhibition at 0.1 µM in series [1] was 1%; in series [3] (setting [8]) it was 101%. For the same compound, the IC50 in series [2] (setting [7]) is > 100 nM.
In the case of `Cc1cc(C)c(O)c(NC(=O)c2c(C)oc3cc(Oc4ccnc5ccsc45)ccc23)c1`, the inhibition at 0.1 µM stood at 13% in series [1] and 87% in series [3]. Further, the IC50 in series [2] (setting [7]) is ~100 nM.
Take `CNC(=O)c1c(C)sc2cc(Oc3ccnc4cc(C(=O)N5C[C@@H](O)[C@@H](O)C5)sc34)ccc12` [Example 7, 6-(2-[meso-3,4-dihydroxypyrrolidine-1-carbonyl]thieno[3,2-b]pyridin-7-yloxy)-2-methylbenzo[b]thiophene-3-carboxylic acid methylamide]: the IC50 in series [4] stood at 1.95 nM; in series [5], 1.21 nM; in series [6] it was 2470 nM. In addition, in series [3], the inhibition at 0.05 µM worked out at 95%. In addition, in series [3], the Ki turned out to be 0.00104 µM.
Take `Cc1oc2cc(Oc3ccnc4ccsc34)ccc2c1C(=O)Nc1cccc(-c2cc[nH]n2)c1`: the inhibition at 0.1 µM turned out to be 0% in series [1] and 94% in series [3] (setting [8]). In series [2] (setting [7]), the IC50 was > 100 nM.
The matching figures for `Cc1oc2cc(Oc3ccnc4ccsc34)ccc2c1C(=O)Nc1n[nH]c2cccc(F)c12`: 0%, 61% and > 100 nM.
Regarding `Cc1c(C(=O)NCC2CC2)c2ccc(Oc3ccnc4cc(-c5nc(C(C)(C)O)cs5)sc34)cc2n1C` [Example 57, 6-{2-[4(1-Hydroxy-1-methyl-ethyl)-thiazol-2-yl]-thieno[3,2-b]pyridin-7-yloxy)-1,2-dimethyl-1H-indole-3-carboxylic acid cyclopropylmethyl-amide], the IC50 in series [4] came out at 87 nM. In series [3], the inhibition at 0.05 µM was determined as 63% and affinity was put at a Ki of 0.0098 µM.
For `CNC(=O)c1c(C)sc2cc(Oc3ccnc4cc(C(=O)N5CC(O)C5)sc34)ccc12` [Example 9, 6-(2-[3-Hydroxyazetidine-1-carbonyl]thieno[3,2-b]pyridin-7-yloxy)-2-methylbenzo[b]thiophene-3-carboxylic acid methylamide], the melting point lay within 237 to 239 °C. The IC50 in series [5] came out at 13 nM. The IC50 in series [2] (setting [9]) was 313 nM. Moreover, in series [6], half-maximal inhibition (IC50) required 135 nM. For the same compound, in series [3], the inhibition at 0.05 µM came out at 83% and affinity was put at a Ki of 0.00157 µM.
Consider `COc1ccc(NC(=O)c2c(C)oc3cc(Oc4ccnc5ccsc45)ccc23)c(OC)n1`, for which the inhibition at 0.1 µM in series [1] was 1%; in series [3] (setting [8]), 92%. The IC50 in series [2] (setting [7]) is > 100 nM.
With `CNC(=O)c1c(C)sc2cc(Oc3ccnc4cc(-c5ccnn5C)sc34)ccc12` [Example 10, 2-Methyl-6-(2-[2-methyl-2H-pyrazol-3-yl]thieno[3,2-b]pyridin-7-yloxy)benzo[b]thiophene-3-carboxylic acid methylamide], the melting point lay in the range of 210 to 212 °C. The IC50 in series [5] came to 10 nM. In addition, in series [2] (setting [9]), the IC50 came to 451 nM. The midpoint of inhibition in series [6], the IC50, lay at 99 nM. Besides, in series [3], the inhibition at 0.05 µM was found to be 74% and the Ki was found to be 0.00231 µM.
Take `Cc1oc2cc(Oc3ccnc4ccsc34)ccc2c1C(=O)NCCc1cccc(C(F)(F)F)c1`: the inhibition at 0.1 µM in series [1] came out at 0%; in series [3] (setting [8]), 97%. Besides, in series [2] (setting [7]), the IC50 was > 100 nM.

Usually IC50 stands for the point on the concentration scale where inhibition reaches its midpoint. Broadly, the Ki is the equilibrium dissociation constant of an inhibitor or competing ligand from its target. Usually melting point stands for the temperature, or range, at which the solid turns liquid.
